System: HIV-1-NL4-3
Experiment: p24 ELISA in H9 cells chronically infected with HIV-1-NL4-3 (antisense effect)
Assay type: cell-based
Settings: H9 cells chronically infected with HIV-1-NL4-3, 5 days of incubation, p24 GAG ELISA
Procedure: H9 cells, chronically infected with strain HIV-1-NL4-3 are washed twice with a PBS buffer in order to remove viruses already produced. The cells are incubated in a 96-well plate with 10^4 cells/well, 4 wells per sample, in 200 μl culturing medium with or without a compound according to the invention or Ritonavir, respectively, at a distinct concentration. After 5 days of incubation, 40 μl of the cell suspension are taken from each of the 4 wells and inactivated with 40 μl Nonidet P-40.
The amount of the antigen p24 GAG is determined by a quantitative ELISA assay (Sandwich-ELISA-Biotin-Strepavidin-HRP) according to the standard method of the Institute for Applied Microbiology in Vienna. As a standard, samples with a known amount of p24 are used to investigate the standard calibration curve.
In this context, in the case of stereochemically non-uniform oligomers of the sequence […]-NH2 (SEQ ID NO: 1), a reduction of the amount of p24 of 21% can be observed compared with the untreated sample.

TCGCTGCCAAAGAGT-NH2: stereochemically non-uniform oligomers of the sequence TCGCTGCCAAAGAGT-NH2 (SEQ ID NO: 1), as in EP 1157031 (3'-NH2, stereochemically non-uniform, chemistry not fully specified)
reduction of the amount of p24 compared with the untreated sample: 21%

— patent US9951093B2, “Chiral compounds substituted with phosphonic acid ester functions or phosphonic acid functions” (UGISense AG, priority 2006, dated 2018)
